Test results as given in ChEMBL document CHEMBL1153434, “Pyridoimidazolones as novel potent inhibitors of v-Raf murine sarcoma viral oncogene homologue B1 (BRAF)” (J Med Chem, 2009).

Legend:
[1] = Growth inhibition of human WM266.4 cells expressing BRAF mutant by SRB assay; format: functional, cell-based; conditions: WM 266-4
[2] = target: Serine/threonine-protein kinase B-raf (Homo sapiens, UniProt P15056, V600E)
Description: Inhibition of BRAF V600E mutant

[3] = Metabolic stability in mouse liver microsomes assessed as drug metabolism at 10 uM; format: ADME, Microsome; conditions: read-out: Activity
[4] = Cmax in plasma of BRAF mutant expressing WM266.4 cells xenografted Crl:CD1-Foxn1nu mouse at 2 mg/kg, iv; format: ADME, organism-based; design: dose 2 mg/kg, route intravenous
[5] = Cmax in tumor of BRAF mutant expressing WM266.4 cells xenografted Crl:CD1-Foxn1nu mouse at 2 mg/kg, iv; format: ADME, organism-based, Neoplasm; design: dose 2 mg/kg, route intravenous; conditions: read-out: Cmax_tumor
[6] = AUC in plasma of BRAF mutant expressing WM266.4 cells xenografted Crl:CD1-Foxn1nu mouse at 2 mg/kg, iv; format: ADME, organism-based; design: dose 2 mg/kg, route intravenous
[7] = AUC in tumor of BRAF mutant expressing WM266.4 cells xenografted Crl:CD1-Foxn1nu mouse at 2 mg/kg, iv; format: ADME, organism-based, Neoplasm; design: dose 2 mg/kg, route intravenous
[8] = Half life in plasma of BRAF mutant expressing WM266.4 cells xenografted Crl:CD1-Foxn1nu mouse at 2 mg/kg, iv; format: ADME, organism-based; design: dose 2 mg/kg, route intravenous
[9] = Half life in tumor of BRAF mutant expressing WM266.4 cells xenografted Crl:CD1-Foxn1nu mouse at 2 mg/kg, iv; format: ADME, organism-based, Neoplasm; design: dose 2 mg/kg, route intravenous
[10] = Clearance in plasma of BRAF mutant expressing WM266.4 cells xenografted Crl:CD1-Foxn1nu mouse at 2 mg/kg, iv; format: ADME, organism-based; design: dose 2 mg/kg, route intravenous
[11] = Clearance in tumor of BRAF mutant expressing WM266.4 cells xenografted Crl:CD1-Foxn1nu mouse at 2 mg/kg, iv; format: ADME, organism-based, Neoplasm; design: dose 2 mg/kg, route intravenous; conditions: in vivo
[12] = Cmax in BALB/cAnNCrl mouse plasma at 2 mg/kg, iv; format: ADME, organism-based; design: dose 2 mg/kg, route intravenous
[13] = Cmax in BALB/cAnNCrl mouse muscle at 2 mg/kg, iv; format: ADME, organism-based, Muscle tissue; design: dose 2 mg/kg, route intravenous
[14] = AUC in BALB/cAnNCrl mouse plasma at 2 mg/kg, iv; format: ADME, organism-based; design: dose 2 mg/kg, route intravenous
[15] = AUC in BALB/cAnNCrl mouse muscle at 2 mg/kg, iv; format: ADME, organism-based, Muscle tissue; design: dose 2 mg/kg, route intravenous
[16] = Half life in BALB/cAnNCrl mouse plasma at 2 mg/kg, iv; format: ADME, organism-based; design: dose 2 mg/kg, route intravenous
[17] = Half life in BALB/cAnNCrl mouse muscle at 2 mg/kg, iv; format: ADME, organism-based, Muscle tissue; design: dose 2 mg/kg, route intravenous
[18] = Clearance in BALB/cAnNCrl mouse plasma at 2 mg/kg, iv; format: ADME, organism-based; design: dose 2 mg/kg, route intravenous
Muscle tissue = assay: Clearance in BALB/cAnNCrl mouse muscle at 2 mg/kg, iv; format: ADME, organism-based; design: dose 2 mg/kg, route intravenous; conditions: in vivo

Serine/threonine-protein kinase B-raf, sequence (P15056 2-766 V600E limits assumed): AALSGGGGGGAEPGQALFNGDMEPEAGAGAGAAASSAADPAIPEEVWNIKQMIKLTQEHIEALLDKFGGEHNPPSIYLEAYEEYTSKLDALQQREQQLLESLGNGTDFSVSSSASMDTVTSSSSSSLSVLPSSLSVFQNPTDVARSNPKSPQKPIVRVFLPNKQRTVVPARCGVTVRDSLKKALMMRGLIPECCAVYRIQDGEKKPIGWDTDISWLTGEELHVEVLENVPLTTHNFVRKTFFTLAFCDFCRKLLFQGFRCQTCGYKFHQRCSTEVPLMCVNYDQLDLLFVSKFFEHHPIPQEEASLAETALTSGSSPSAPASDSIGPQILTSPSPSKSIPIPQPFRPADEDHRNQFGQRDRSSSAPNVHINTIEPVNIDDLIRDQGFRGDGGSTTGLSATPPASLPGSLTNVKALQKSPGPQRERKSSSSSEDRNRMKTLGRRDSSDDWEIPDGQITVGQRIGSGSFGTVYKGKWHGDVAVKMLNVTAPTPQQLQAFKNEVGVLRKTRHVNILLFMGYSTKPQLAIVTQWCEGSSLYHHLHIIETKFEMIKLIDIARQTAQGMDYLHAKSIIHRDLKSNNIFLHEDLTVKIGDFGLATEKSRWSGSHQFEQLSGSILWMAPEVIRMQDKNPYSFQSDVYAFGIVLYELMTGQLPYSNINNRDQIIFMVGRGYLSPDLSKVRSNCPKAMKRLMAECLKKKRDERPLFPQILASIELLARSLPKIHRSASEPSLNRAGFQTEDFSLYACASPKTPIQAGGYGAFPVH

O=C(Nc1ccc(Oc2ccnc3[nH]c(=O)[nH]c23)cc1)c1cccc(Br)c1
IC50 [1]: 18 µM
IC50 [2]: 14 µM

O=c1[nH]c2nccc(Oc3ccc(NS(=O)(=O)c4ccc(Cl)c(C(F)(F)F)c4)cc3)c2[nH]1
IC50 [1]: 40.3 µM
IC50 [2]: > 100 µM

O=C(Nc1ccc(Oc2ccnc3[nH]c(=O)[nH]c23)cc1)Nc1ccc(Cl)c(C(F)(F)F)c1
IC50 [1]: 4.2 µM
metabolised at 10 µM [3]: 0%
Cmax [4]: 1060 nM
Cmax [5]: 207 nM
AUC [6]: 0.718 µM·h
AUC [7]: 0.468 µM·h
half-life [8]: 0.8 h
half-life [9]: 1.24 h
clearance [10]: 1.95 mL/min
CL [11]: 0.16 L/h
IC50 [2]: 0.023 µM

O=C(Nc1ccc(Oc2ccnc3[nH]c(=O)[nH]c23)cc1)Nc1cc(F)cc(N2CCOCC2)c1
IC50 [1]: 41 µM
IC50 [2]: 0.6 µM

O=C(Nc1ccccc1)Nc1ccc(Oc2ccnc3[nH]c(=O)[nH]c23)cc1
IC50 [1]: > 100 µM
IC50 [2]: > 100 µM

O=C(Nc1ccc(Oc2ccnc3[nH]c(=O)[nH]c23)cc1)c1cccc(OC(F)(F)F)c1
IC50 [1]: > 100 µM
IC50 [2]: > 100 µM

O=C(Nc1ccc(Oc2ccnc3[nH]c(=O)[nH]c23)cc1)Nc1cccc(F)c1
IC50 [1]: 13.9 µM
IC50 [2]: 2.84 µM

O=C(Nc1ccc(Sc2ccnc3[nH]c(=O)[nH]c23)cc1)Nc1cccc(C(F)(F)F)c1
IC50 [1]: 1.42 µM
IC50 [2]: 0.028 µM

COc1ccc(C(F)(F)F)cc1NC(=O)Nc1ccc(Oc2ccnc3[nH]c(=O)[nH]c23)cc1
IC50 [1]: 4.2 µM
IC50 [2]: 0.012 µM

O=C(Cc1cccc(OC(F)(F)F)c1)Nc1ccc(Oc2ccnc3[nH]c(=O)[nH]c23)cc1
IC50 [1]: 23.9 µM

CCn1c(=O)n(CC)c2c(Oc3ccc(NC(=O)Nc4ccc(Cl)c(C(F)(F)F)c4)cc3)ccnc21
IC50 [1]: 22 µM
IC50 [2]: 0.305 µM

O=C(Nc1ccc(Oc2ccnc3[nH]c(=O)[nH]c23)cc1)Nc1cc(Cl)cc(C(F)(F)F)c1
IC50 [1]: 12.8 µM
IC50 [2]: 0.1 µM

O=C(Nc1ccc(Oc2ccnc3[nH]c(=O)[nH]c23)cc1)Nc1cccc(OC(F)(F)F)c1
IC50 [1]: > 100 µM
IC50 [2]: 0.021 µM

O=C(Nc1ccc(Oc2ccnc3[nH]c(=O)[nH]c23)cc1)c1ccc(Cl)c(C(F)(F)F)c1
IC50 [1]: 8.1 µM
IC50 [2]: 15.9 µM

O=C(Nc1ccc(Oc2ccnc3[nH]c(=O)[nH]c23)cc1)c1cc(F)cc(N2CCOCC2)c1
IC50 [1]: 44 µM
IC50 [2]: > 100 µM

O=C(Nc1ccc(Oc2ccnc3[nH]c(=O)[nH]c23)cc1)c1cccc(C(F)(F)F)c1
IC50 [1]: 22 µM
IC50 [2]: 17.2 µM

O=C(Nc1ccc(Sc2ccnc3[nH]c(=O)[nH]c23)cc1)Nc1cc(C(F)(F)F)ccc1F
IC50 [1]: 1.28 µM
IC50 [2]: 0.029 µM

O=c1[nH]c2nccc(Oc3ccc(NS(=O)(=O)c4ccccc4)cc3)c2[nH]1
IC50 [1]: 62.7 µM
metabolised at 10 µM [3]: 5%
IC50 [2]: 0.85 µM

O=c1[nH]c2nccc(Oc3ccc(NS(=O)(=O)c4ccccc4F)cc3)c2[nH]1
IC50 [1]: 62 µM
IC50 [2]: 32.5 µM

O=c1[nH]c2nccc(Oc3ccc(NS(=O)(=O)c4cccs4)cc3)c2[nH]1
IC50 [1]: 15.6 µM
IC50 [2]: 12.2 µM

Cn1c(=O)n(C)c2c(Oc3ccc(NC(=O)Nc4ccc(Cl)c(C(F)(F)F)c4)cc3)ccnc21
IC50 [1]: 4.8 µM
IC50 [2]: 0.061 µM

COc1cc(Cl)c(C(F)(F)F)cc1NC(=O)Nc1ccc(Oc2ccnc3[nH]c(=O)[nH]c23)cc1
IC50 [1]: 1.6 µM
metabolised at 10 µM [3]: 8%
IC50 [2]: 0.027 µM

Cn1c(=O)[nH]c2c(Oc3ccc(NC(=O)Nc4cccc(C(C)(C)C)c4)cc3)ccnc21
IC50 [1]: 7 µM
IC50 [2]: 0.06 µM

O=c1[nH]c2nccc(Oc3ccc(NS(=O)(=O)c4ccc(C(F)(F)F)cc4)cc3)c2[nH]1
IC50 [1]: 41 µM
IC50 [2]: > 100 µM

O=c1[nH]c2nccc(Oc3ccc(NS(=O)(=O)c4ccc(Cl)cc4)cc3)c2[nH]1
IC50 [1]: 39 µM
IC50 [2]: > 100 µM

Cn1c(=O)[nH]c2nccc(Oc3ccc(NC(=O)Nc4cccc(C(C)(C)C)c4)cc3)c21
IC50 [1]: 2.82 µM
IC50 [2]: 0.163 µM

Cn1c(=O)[nH]c2c(Oc3ccc(NC(=O)Nc4cc(C(F)(F)F)ccc4F)cc3)ccnc21
IC50 [1]: 1.94 µM
IC50 [2]: 0.046 µM

O=C(Nc1ccc(Sc2ccnc3[nH]c(=O)[nH]c23)cc1)Nc1ccc(Cl)c(C(F)(F)F)c1
IC50 [1]: 2.1 µM
IC50 [2]: 0.04 µM

O=C(Nc1ccc(Oc2ccnc3[nH]c(=O)[nH]c23)cc1)Nc1cc(C(F)(F)F)ccc1F
IC50 [1]: 3.3 µM
IC50 [2]: 0.052 µM

O=C(Cc1cccc(C(F)(F)F)c1)Nc1ccc(Oc2ccnc3[nH]c(=O)[nH]c23)cc1
IC50 [1]: 5 µM

Cn1c(=O)[nH]c2nccc(Oc3ccc(NC(=O)Nc4ccc(Cl)c(C(F)(F)F)c4)cc3)c21
IC50 [1]: 5.3 µM
metabolised at 10 µM [3]: 11%
Cmax [4]: 2450 nM
Cmax [5]: 1150 nM
AUC [6]: 3.26 µM·h
AUC [7]: 4.5 µM·h
half-life [8]: 2.58 h
half-life [9]: 9.72 h
clearance [10]: 0.283 mL/min
CL [11]: 0.006 L/h
IC50 [2]: 0.022 µM

Cn1c(=O)[nH]c2c(Oc3ccc(NC(=O)Nc4ccc(Cl)c(C(F)(F)F)c4)cc3)ccnc21
IC50 [1]: 3.7 µM
Cmax [12]: 3230 nM
Cmax [13]: 8080 nM
AUC [14]: 16.4 µM·h
AUC [15]: 9.46 µM·h
half-life [16]: 4.72 h
half-life [17]: 4.35 h
clearance [18]: 0.833 mL/min
CL (Muscle tissue): 0.009 L/h
IC50 [2]: 0.045 µM

O=c1[nH]c2nccc(Oc3ccc(NS(=O)(=O)c4ccc(F)cc4)cc3)c2[nH]1
IC50 [2]: > 100 µM

O=C(Nc1ccc(Oc2ccnc3[nH]c(=O)[nH]c23)cc1)Nc1cc(C(F)(F)F)ccc1N1CCOCC1
IC50 [1]: 5.2 µM
IC50 [2]: 0.86 µM

CNC(=O)c1cc(Oc2ccc(NC(=O)Nc3ccc(Cl)c(C(F)(F)F)c3)cc2)ccn1 [SORAFENIB]
IC50 [1]: 5 µM

COc1cccc(CC(=O)Nc2ccc(Oc3ccnc4[nH]c(=O)[nH]c34)cc2)c1
IC50 [1]: 40 µM

O=C(Nc1ccc(Oc2ccnc3[nH]c(=O)[nH]c23)cc1)Nc1ccc(C(F)(F)F)cc1
IC50 [1]: > 100 µM
IC50 [2]: > 100 µM

O=C(Nc1ccc(Oc2ccnc3[nH]c(=O)[nH]c23)cc1)Nc1cccc(C(F)(F)F)c1
IC50 [1]: > 100 µM
IC50 [2]: 0.014 µM

O=C(Nc1ccc(Cl)cc1)Nc1ccc(Oc2ccnc3[nH]c(=O)[nH]c23)cc1
IC50 [1]: > 100 µM
IC50 [2]: > 100 µM

O=c1[nH]c2nccc(Oc3ccc(NC(=S)Nc4ccc(Cl)c(C(F)(F)F)c4)cc3)c2[nH]1
IC50 [1]: 10.7 µM
IC50 [2]: 0.085 µM

O=C(Cc1ccccc1)Nc1ccc(Oc2ccnc3[nH]c(=O)[nH]c23)cc1
IC50 [1]: 73 µM
IC50 [2]: 16.7 µM

O=C(Cc1cc(F)cc(F)c1)Nc1ccc(Oc2ccnc3[nH]c(=O)[nH]c23)cc1
IC50 [1]: 29 µM
IC50 [2]: > 100 µM

O=C(Nc1ccc(Oc2ccnc3[nH]c(=O)[nH]c23)cc1)c1ccccc1
IC50 [1]: > 100 µM
IC50 [2]: > 100 µM

O=C(Nc1ccc(Oc2ccnc3[nH]c(=O)[nH]c23)cc1)Nc1ccccc1C(F)(F)F
IC50 [1]: > 100 µM
IC50 [2]: > 100 µM
